Results taken from ChEMBL document CHEMBL1201862, “PubChem BioAssay data set” (2004).
Several values for one entry are separate records, joined by “and”; a condition that tells them apart may be missing. Equal values may be shown once. Activity calls are given as the source filed them.

How the values were obtained:
[1] = biological target: Alkaline phosphatase, placental type (Homo sapiens, UniProt P05187); experiment: PLAP enzyme inhibitors, confirmation, biochemical, luminescence (AID 1512); type: functional
Alkaline phosphatase, placental type, sequence (P05187 whole entry): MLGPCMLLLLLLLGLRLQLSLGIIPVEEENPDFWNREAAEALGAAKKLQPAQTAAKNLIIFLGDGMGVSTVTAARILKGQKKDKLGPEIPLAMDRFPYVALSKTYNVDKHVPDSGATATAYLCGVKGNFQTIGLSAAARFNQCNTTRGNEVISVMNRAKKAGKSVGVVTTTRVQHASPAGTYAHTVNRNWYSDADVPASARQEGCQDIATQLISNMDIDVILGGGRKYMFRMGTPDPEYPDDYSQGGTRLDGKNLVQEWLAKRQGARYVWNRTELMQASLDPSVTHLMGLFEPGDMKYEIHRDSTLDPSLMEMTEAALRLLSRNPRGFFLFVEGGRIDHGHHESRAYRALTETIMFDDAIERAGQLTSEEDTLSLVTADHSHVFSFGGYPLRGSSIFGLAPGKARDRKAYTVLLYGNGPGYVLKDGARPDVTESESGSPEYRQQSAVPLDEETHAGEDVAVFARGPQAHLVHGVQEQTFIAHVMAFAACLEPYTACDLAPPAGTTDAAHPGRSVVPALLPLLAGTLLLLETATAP

[2] = biological target: T1, Alkaline phosphatase, tissue-nonspecific isozyme (Homo sapiens, UniProt P05186); experiment: human TNAP enzyme inhibitors, SAR follow-up, biochemical, luminescent, dose response (AID 1056)
T1 sequence (P05186 whole entry): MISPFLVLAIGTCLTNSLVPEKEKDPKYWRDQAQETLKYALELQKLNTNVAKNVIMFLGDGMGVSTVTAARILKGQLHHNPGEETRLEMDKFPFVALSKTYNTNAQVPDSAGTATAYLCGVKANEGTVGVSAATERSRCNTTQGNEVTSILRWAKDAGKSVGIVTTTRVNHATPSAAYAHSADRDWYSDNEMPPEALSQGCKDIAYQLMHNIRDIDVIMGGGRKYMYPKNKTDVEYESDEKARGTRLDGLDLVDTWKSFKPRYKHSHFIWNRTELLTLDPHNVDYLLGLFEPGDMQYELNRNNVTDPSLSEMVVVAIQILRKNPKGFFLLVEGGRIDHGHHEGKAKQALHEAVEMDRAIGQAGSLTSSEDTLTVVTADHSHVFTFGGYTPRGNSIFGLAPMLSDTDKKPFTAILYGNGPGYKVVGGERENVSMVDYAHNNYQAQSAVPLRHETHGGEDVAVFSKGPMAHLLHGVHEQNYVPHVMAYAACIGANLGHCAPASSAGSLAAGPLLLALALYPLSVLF

[3] = biological target: Nucleotide-binding oligomerization domain-containing protein 2 (Homo sapiens, UniProt Q9HC29); experiment: NOD2 signaling inhibitors, cell-based, luminescence, uHTS, HEK293 (AID 1566); type: functional
Nucleotide-binding oligomerization domain-containing protein 2, sequence (Q9HC29 whole entry, the tested form may be a part): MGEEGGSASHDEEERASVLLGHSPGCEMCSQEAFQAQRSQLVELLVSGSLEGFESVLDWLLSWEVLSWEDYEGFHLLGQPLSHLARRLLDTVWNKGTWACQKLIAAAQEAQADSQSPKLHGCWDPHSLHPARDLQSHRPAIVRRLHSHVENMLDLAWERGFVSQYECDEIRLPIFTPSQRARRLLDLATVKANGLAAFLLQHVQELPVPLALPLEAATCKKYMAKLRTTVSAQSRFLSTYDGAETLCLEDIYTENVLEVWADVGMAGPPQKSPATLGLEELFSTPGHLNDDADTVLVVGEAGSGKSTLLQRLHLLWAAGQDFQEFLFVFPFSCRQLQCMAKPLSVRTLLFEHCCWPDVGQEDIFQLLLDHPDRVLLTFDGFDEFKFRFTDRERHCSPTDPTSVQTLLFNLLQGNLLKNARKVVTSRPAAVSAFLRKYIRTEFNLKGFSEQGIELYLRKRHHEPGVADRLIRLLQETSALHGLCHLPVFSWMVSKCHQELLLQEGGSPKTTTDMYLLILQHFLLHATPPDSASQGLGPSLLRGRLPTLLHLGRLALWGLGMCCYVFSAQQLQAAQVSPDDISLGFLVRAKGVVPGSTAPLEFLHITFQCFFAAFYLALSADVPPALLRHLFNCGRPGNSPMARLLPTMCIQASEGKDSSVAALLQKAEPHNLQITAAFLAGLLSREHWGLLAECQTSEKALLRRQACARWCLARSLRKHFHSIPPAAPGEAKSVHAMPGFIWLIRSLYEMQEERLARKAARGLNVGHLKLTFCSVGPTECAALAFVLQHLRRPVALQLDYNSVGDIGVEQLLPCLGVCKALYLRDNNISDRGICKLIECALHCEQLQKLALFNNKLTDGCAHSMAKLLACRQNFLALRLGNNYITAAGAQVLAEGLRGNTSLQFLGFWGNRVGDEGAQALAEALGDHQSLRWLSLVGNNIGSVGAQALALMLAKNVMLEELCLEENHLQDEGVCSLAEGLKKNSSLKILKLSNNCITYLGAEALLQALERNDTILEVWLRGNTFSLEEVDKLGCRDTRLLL

[4] = test system: HEK293; experiment: NOD2 signaling inhibitors in MDP-stimulated cells, cell-based, uHTS, luminescence (AID 2001); type: functional; settings: Homo sapiens
[5] = test system: HEK293; experiment: cells; type: functional, cell-based; settings: Homo sapiens
[6] = test system: HEK293; experiment: cells; type: functional, cell-based; settings: Homo sapiens; remark: listed apart in the source
[7] = test system: HEK293; experiment: cells; type: functional, cell-based; settings: Homo sapiens; remark: listed apart in the source
[8] = test system: HEK293; experiment: NOD1 signaling inhibitors, primary screen, cell-based, luminescence, uHTS (AID 1578); type: functional; settings: Homo sapiens
[9] = test system: Streptococcus; experiment: Group A Streptococcus viability loss, dose response, counter-screen for streptokinase expression inhibitor project, luminescence, BacTiterGlo (AID 1915); type: functional, organism-based;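 further: potency for reduction of bacterial viability or growth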
[10] = test system: H9c2; experiment: cells; type: functional, cell-based; settings: Rattus norvegicus, H9c2, Myocardium;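 further: confirmatory concentration-response retest of ultra-high-throughput screening hits for modulation of myocardial damage; cell death induced by hydrogen peroxide oxidative stress; compound pretreatment for 60 min then peroxide exposure for 2 h; potency is for protecting the cells against peroxide damage rather than for killing them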
[11] = biological target: T2, Streptokinase A (Streptococcus pyogenes serotype M1, UniProt P10520); experiment: S. pyogenes streptokinase expression inhibitors, potency, dose response, plasminogen activation absorbance, OD405 (AID 1914); type: functional, Streptococcus pyogenes M1 GAS;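 further: secreted streptokinase activity via plasminogen activation per viability signal from cell pellet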
T2 sequence (P10520 whole entry): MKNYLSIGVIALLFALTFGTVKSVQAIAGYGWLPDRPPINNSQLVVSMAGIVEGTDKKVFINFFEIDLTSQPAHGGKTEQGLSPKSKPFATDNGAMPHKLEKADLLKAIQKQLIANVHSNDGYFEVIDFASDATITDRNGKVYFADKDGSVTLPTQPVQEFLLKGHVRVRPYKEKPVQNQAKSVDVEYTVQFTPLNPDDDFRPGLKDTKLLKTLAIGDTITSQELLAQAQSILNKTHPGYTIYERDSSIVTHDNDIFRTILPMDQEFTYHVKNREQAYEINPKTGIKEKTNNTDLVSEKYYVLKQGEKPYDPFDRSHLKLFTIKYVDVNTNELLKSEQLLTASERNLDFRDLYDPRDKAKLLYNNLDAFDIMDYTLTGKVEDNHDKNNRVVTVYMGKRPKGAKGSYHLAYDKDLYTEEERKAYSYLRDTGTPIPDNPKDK

[12] = test system: Streptococcus sp. 'group A'; experiment: growth inhibition of control SK(-) GAS strain, dose response, counter-screen for streptokinase expression inhibitor project, luminescence, kanamycin, BacTiterGlo, confirmation (AID 1900); type: functional, organism-based
[13] = biological target: Voltage-dependent T-type calcium channel subunit alpha-1H (Homo sapiens, UniProt O95180); type: functional;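 further: channel activity triggered by adding a high calcium stimulation buffer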
[14] = biological target: Dual specificity tyrosine-phosphorylation-regulated kinase 1A (Rattus norvegicus, UniProt Q63470); type: biochemical, Homo sapiens
[15] = biological target: T3, Nucleotide-binding oligomerization domain-containing protein 1 (Homo sapiens, UniProt Q9Y239); experiment: NOD1 signaling inhibitors, SAR follow-up, revised (AID 2333); type: functional
T3 sequence (Q9Y239 whole entry): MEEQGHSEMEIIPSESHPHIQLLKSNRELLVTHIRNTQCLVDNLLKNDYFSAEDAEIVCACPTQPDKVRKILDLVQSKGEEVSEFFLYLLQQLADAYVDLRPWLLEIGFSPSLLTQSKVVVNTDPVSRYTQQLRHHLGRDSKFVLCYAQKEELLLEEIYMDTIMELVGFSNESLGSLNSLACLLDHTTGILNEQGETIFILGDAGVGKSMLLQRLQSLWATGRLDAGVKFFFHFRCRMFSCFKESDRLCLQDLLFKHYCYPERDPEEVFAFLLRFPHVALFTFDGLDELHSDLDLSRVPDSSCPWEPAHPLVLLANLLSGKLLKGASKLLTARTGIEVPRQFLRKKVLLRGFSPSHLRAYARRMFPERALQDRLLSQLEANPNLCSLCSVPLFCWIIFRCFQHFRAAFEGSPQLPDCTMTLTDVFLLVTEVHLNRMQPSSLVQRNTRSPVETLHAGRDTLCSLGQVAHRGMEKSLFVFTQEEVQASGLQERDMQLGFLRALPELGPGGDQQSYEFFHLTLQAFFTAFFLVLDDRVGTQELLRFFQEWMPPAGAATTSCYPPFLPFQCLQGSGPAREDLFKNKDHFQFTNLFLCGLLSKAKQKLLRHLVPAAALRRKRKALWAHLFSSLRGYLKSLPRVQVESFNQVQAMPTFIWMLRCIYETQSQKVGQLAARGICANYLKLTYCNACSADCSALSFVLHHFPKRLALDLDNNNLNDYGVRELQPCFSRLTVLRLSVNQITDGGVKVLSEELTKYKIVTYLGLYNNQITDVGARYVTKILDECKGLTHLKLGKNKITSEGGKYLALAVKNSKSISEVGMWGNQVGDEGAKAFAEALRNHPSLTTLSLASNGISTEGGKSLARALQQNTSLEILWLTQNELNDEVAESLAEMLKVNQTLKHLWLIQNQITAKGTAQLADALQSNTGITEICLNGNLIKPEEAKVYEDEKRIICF

[16] = test system: HEK293; experiment: cells; settings: Homo sapiens
[17] = biological target: Tumor necrosis factor (Homo sapiens, UniProt P01375); experiment: TNFa-triggered NF-kB activation inhibitors, SAR follow-up, cell-based, revised (AID 2337); type: functional
Tumor necrosis factor, sequence (P01375 whole entry): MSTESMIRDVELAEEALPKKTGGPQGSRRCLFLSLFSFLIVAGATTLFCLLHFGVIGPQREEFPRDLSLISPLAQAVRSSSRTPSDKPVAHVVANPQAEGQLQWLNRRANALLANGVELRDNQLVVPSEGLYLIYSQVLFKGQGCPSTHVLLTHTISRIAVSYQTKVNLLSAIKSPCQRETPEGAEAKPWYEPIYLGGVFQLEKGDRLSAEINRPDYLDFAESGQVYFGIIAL

[18] = cytotoxicity in HEK-293T cells, dose response, cytotoxicity control for TCR NF-kB inhibitor project, luminescence, T-cell screen hits (AID 489026); type: functional, cell-based;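 further: cells exposed to compound about 14 hours before the viability readout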
[19] = biological target: T4, Protein skinhead-1 (Caenorhabditis elegans, UniProt P34707); type: functional
T4 sequence (P34707 whole entry): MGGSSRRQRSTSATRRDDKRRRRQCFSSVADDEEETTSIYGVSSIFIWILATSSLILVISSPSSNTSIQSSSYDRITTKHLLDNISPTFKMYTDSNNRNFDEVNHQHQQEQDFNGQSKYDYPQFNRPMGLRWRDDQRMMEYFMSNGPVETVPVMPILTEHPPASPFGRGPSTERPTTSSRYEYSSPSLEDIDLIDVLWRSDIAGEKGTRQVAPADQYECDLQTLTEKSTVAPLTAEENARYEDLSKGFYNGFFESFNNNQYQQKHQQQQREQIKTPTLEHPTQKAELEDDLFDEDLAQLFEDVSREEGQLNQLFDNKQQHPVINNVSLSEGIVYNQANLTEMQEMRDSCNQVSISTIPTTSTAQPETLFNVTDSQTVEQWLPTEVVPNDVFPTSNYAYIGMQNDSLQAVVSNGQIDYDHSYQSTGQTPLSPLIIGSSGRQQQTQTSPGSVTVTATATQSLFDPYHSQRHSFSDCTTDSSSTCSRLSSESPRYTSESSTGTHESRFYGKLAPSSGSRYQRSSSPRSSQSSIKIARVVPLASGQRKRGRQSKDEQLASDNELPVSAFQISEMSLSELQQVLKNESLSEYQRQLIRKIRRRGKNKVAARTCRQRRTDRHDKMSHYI

[20] = THP-1 cell cytotoxicity, dose response, cytotoxicity control for non-replicating M. tuberculosis project (AID 489025); type: functional
[21] = cells; type: functional
[22] = Vero E6 cell cytotoxicity, dose response, cytotoxicity control for non-replicating M. tuberculosis project, secondary assay (AID 492998); type: functional, VeroE6; settings: Vero C1008
[23] = biological target: T1, Alkaline phosphatase, tissue-nonspecific isozyme; experiment: TNAP enzyme inhibition by screening hits, dose response, selectivity assay for mouse IAP inhibitor project, biochemical, human TNAP, uHTS hits (AID 488906); type: functional
[24] = biological target: Cytochrome P450 2C19 (Homo sapiens, UniProt P33261); experiment: Cytochrome panel assay with activity outcomes. Panel member name: p450-cyp2c19 Compounds with AC50 equal or less than 10 uM are considered active; type: functional; settings: read-out: AC50
Cytochrome P450 2C19, sequence (P33261 whole entry): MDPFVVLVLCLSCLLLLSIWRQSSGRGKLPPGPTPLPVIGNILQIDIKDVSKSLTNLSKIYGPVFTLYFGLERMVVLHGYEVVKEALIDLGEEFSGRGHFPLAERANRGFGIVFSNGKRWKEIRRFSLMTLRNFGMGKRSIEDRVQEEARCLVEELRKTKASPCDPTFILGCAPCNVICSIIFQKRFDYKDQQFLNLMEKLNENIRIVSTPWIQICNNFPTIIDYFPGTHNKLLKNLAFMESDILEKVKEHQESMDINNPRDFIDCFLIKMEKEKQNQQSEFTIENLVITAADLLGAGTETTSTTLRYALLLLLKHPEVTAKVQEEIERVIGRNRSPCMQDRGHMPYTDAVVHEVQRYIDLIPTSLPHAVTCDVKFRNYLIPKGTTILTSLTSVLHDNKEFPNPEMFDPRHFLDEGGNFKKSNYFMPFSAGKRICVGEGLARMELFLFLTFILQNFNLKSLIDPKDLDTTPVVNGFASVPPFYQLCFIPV

[25] = biological target: T5, Caspase-6 (Homo sapiens, UniProt P55212); experiment: human caspase-6 inhibitors, dose response, biochemical, VEID-R110 fluorescence, cherry-pick (AID 720632)
T5 sequence (P55212 whole entry): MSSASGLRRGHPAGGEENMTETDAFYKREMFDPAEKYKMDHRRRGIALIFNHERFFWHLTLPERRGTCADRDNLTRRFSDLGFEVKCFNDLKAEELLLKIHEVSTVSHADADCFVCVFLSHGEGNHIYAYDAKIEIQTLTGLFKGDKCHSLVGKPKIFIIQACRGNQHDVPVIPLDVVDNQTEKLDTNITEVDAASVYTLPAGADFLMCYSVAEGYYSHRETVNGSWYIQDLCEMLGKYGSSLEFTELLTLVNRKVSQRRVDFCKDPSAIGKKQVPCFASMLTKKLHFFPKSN

[26] = biological target: T6, Cytochrome P450 3A4 (Homo sapiens, UniProt P08684)
T6 sequence (P08684 whole entry): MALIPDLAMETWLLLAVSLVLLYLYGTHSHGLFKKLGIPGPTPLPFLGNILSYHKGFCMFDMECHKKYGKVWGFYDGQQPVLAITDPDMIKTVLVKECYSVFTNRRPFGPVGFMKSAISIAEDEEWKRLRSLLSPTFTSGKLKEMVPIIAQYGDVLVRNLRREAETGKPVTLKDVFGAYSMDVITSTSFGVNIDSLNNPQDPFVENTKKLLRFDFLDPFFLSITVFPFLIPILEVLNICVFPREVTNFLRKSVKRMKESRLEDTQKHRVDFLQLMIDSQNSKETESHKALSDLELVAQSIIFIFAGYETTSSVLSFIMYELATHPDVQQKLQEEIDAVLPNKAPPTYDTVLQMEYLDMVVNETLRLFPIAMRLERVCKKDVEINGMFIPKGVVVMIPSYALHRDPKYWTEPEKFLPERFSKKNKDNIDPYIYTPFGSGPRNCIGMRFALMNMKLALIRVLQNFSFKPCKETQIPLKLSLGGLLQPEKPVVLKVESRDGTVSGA

[27] = biological target: T6, Cytochrome P450 3A4; settings: Potency
[28] = biological target: Intestinal-type alkaline phosphatase (Mus musculus, UniProt P24822); experiment: PubChem AID 488785; type: functional
Intestinal-type alkaline phosphatase, sequence (P24822 whole entry): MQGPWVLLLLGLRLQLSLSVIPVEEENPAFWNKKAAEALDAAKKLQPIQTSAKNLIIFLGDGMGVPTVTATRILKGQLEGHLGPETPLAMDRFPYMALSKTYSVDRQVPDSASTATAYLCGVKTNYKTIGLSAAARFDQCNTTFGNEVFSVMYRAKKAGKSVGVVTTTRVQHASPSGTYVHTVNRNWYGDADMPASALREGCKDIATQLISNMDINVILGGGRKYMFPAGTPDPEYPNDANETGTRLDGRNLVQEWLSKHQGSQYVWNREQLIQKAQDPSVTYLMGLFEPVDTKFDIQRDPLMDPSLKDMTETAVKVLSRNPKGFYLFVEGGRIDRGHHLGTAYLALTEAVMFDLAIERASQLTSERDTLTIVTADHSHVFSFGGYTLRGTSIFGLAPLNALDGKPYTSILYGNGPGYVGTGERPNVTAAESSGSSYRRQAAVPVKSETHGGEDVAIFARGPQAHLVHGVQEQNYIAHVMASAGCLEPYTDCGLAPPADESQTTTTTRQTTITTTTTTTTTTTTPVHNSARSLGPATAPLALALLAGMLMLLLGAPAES

[29] = biological target: DNA dC->dU-editing enzyme APOBEC-3G (Homo sapiens, UniProt Q9HC16); experiment: Dose Response confirmation of small molecule APOBEC3G DNA Deaminase Inhibitors via a fluorescence-based single-stranded DNA deaminase assay. [Related pubchem assays (depositor defined):AID493012, AID493028]; type: functional
DNA dC->dU-editing enzyme APOBEC-3G, sequence (Q9HC16 whole entry): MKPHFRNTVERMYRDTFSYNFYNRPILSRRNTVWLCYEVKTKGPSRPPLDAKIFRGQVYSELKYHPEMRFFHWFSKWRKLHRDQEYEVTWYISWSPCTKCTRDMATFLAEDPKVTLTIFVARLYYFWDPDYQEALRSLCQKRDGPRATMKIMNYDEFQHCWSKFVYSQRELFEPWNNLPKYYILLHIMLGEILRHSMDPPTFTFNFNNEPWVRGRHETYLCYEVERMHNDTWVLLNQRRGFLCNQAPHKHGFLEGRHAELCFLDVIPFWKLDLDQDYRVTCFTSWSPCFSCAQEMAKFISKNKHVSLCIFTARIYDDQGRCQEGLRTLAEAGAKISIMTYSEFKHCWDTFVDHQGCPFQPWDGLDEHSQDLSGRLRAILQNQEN

SMILES: Cc1cc(C(=O)NCCc2ccc(O)c(O)c2)c(C)o1
- IC50 [1]: > 100 µM (inactive)
- IC50 [2]: > 100 µM (inactive)

SMILES: COc1ccc(CCNc2oc(COc3ccc(Br)cc3)nc2C#N)cc1OC
- EC50 [3]: 12.8 µM (active)
- IC50 [4]: 5.07 µM (active)
- IC50 [5]: 8.84 µM (active)
- IC50 [6]: 5.86 µM (active)
- IC50 [7]: > 20 µM (inactive)
- EC50 [8]: 10.5 µM (active)

SMILES: O=C(CCCSc1ccccc1)Nc1nc(-c2ccccn2)cs1
- EC50 [9]: 45.8 µM (active)
- IC50 [10]: > 79 µM (inactive)
- EC50 [11]: > 150 µM (not active)
- EC50 [12]: 5.14 µM (active)
- EC50 [13]: 4.7 µM (active)

SMILES: COc1ccc(-n2c(C)c([N+](=O)[O-])c3ccc(O)c(CN4CCCCC4)c32)cc1
- EC50 [3]: > 20 µM (inactive)
- IC50 [4]: 2.39 µM (active)
- IC50 [5]: > 20 µM (inactive)
- IC50 [6]: 2.1 µM (active)
- IC50 [7]: > 20 µM (inactive)
- EC50 [8]: 2.77 µM (active)

SMILES: CCCCN1C(=O)/C(=N\Nc2ccccc2OC)c2ccccc21
- IC50 [1]: 87.9 µM (active)
- IC50 [2]: 28.7 µM (active)

SMILES: CC(=O)NC12CC3CC(C1)CC(C(=O)Nc1nc4ccc(F)cc4s1)(C3)C2
- AC50 [14]: 2.64 µM (active)

SMILES: Cc1ccc(C(=O)N2CCN(c3ccc(F)cc3)CC2)cc1S(=O)(=O)N1CCCCC1
- IC50 [15]: 5.07 µM (active)
- IC50 [4]: 12.9 µM (inactive)
- IC50 [16]: > 20 µM (inactive)
- IC50 [17]: 9.82 µM (active)
- IC50 [5]: > 20 µM (inactive)
- IC50 [6]: 11.2 µM (active)
- EC50 [8]: 5.48 µM (active)

SMILES: Cc1csc2ncnc(NC3CCN(Cc4ccccc4)CC3)c12
- EC50 [3]: 7.78 µM (active)
- IC50 [4]: 2.36 µM (active)
- IC50 [5]: > 20 µM (inactive)
- IC50 [6]: 1.61 µM (active)
- IC50 [7]: > 20 µM (inactive)
- IC50 [18]: > 80 µM (inactive)
- EC50 [8]: 1.92 µM (active)

SMILES: CCc1ccc2nc(Nc3nc(COC)cc(=O)[nH]3)nc(C)c2c1
- IC50 [1]: > 100 µM (inactive)

SMILES: O=C(Nc1nc(-c2cc(F)ccc2F)cs1)c1ccccn1
- IC50 [19]: > 100 µM (inactive)
- CC50 [20]: 29.4 µM (active)
- IC50 [21]: 0.83 µM (active)
- CC50 [22]: > 20 µM (active)

SMILES: COc1ccc(O)c(-c2[nH]ncc2C(=O)c2ccccc2)c1
- EC50 [3]: 14.3 µM (active)
- IC50 [4]: 14 µM (inactive)
- IC50 [5]: > 20 µM (inactive)
- IC50 [6]: 9.31 µM (active)
- IC50 [7]: > 20 µM (inactive)
- EC50 [8]: 15 µM (active)

SMILES: O=c1c(O)c(-c2cc(O)c(O)c(O)c2)oc2cc(O)cc(O)c12 [MYRICETIN]
- IC50 [23]: 33.2 µM (active)
- AC50 [24]: 3.98 µM (inconclusive) and 20 µM (inconclusive)
- AC50 [25]: 0.461 µM (active)
- AC50 [26]: 3.98 µM (inconclusive)
- AC50 [27]: 25.1 µM (inconclusive)
- IC50 [28]: 12.5 µM (active)
- IC50 [29]: 2.39 µM (active)
